Patent US12410147B2, “Surfactants” (Imperial College Innovations Limited, priority 2020, dated 2025)

What was measured:
[1] = Solubility study in water (ISO standard 6839); format: physicochemical; settings: for solubility in water (concentration solubilized): room temperature
Method: 10 ml of solution was poured into a 20 ml vial and allowed to cool until precipitation was observed. Other 10 ml of solution was poured into a 20 ml vial and kept at a higher temperature. The precipitated sample was slowly heated and the clear sample was slowly cooled. The temperature at which an appearance change occurred was considered the temperature of solubility at a specific surfactant concentration.

[2] = Critical micelle concentration, air-water-surfactant system, pendant drop method; format: physicochemical; settings: 25° C., deionised water
Method: Concentrations that were evaluated for each surfactant varied depending on the solubility of the surfactant and the surface tension reduction observed during the analysis. The experiment was performed at 25° C. Deionised water (prepared using a Milli-Q system (Merck)) was used for each experiment. The pendant drop method was used to calculate the surface tension by using a Krüss DSA25. A drop of the solution was produced in the tip of a blunt metal needle (1.25 mm) until the drop reached its maximum size. After 10-15 seconds of equilibration, an image of the drop was captured using a digital camera. The drop was analyzed using the software Krüss EasyDrop Standard-Drop Shape Analysis (DSA1) v 1.92. The software uses the Young-Laplace equation to calculate the surface tension according to the drop deformation considering the effect of gravity and hydrostatic pressure. Critical micellar concentration (CMC) was obtained after plotting surface tension vs surfactant concentration. The CMC is calculated as the surfactant concentration where the initial straight line intersects the plateau in the graph.

[3] = Resistance to hard water (ISO standard 1063); format: physicochemical; settings: for appearance of the solutions in hard water stability tests (in words): all calcium concentrations; for Mean Stability: class from total score according to Table 3; for Total Score: sum of 15 appearance scores, CaCl2 6, 9 and 12 m equivalent Ca/L, five aliquots of 50 mg/ml mother solution
Method: These measurements were made according the standard protocol reported in ISO standard 1063. Calcium chloride was used as cation source at concentrations of 6, 9 and 12 m equivalent Ca/L (3.0, 4.5, 6.0 mM). A mother solution of surfactant with 50 mg/ml concentration was prepared in water at 20° C. In a 50 ml falcon-tube, a defined aliquot of mother solution was transferred and diluted up to 50 ml with the calcium solution. Five different aliquots of surfactant mother solution were tested: 5.0, 2.5, 1.2, 0.6 and 0.3 ml. In every test, the appearance of the sample was inspected and assigned a score according to Table 2. The scores of the 15 tests for each surfactant were summed and the final result was expressed as mean stability according to Table 3.
• Opalescent is a solution not clear but which objects can be seen. Cloudy is a solution not clear which objects cannot be seen through.

[4] = Surface tension in octanol-water-surfactant system, drop volume method (ISO 9101 modified); format: physicochemical
Source text: The drop volume method was used to calculate the surface tension in the system following the ISO standard 9101 with some modifications. In each experiment a drop of aqueous solution of surfactant was slowly formed in the tip of a needle (d=1.82 mm) submerged in octanol using a syringe connected at a Krüss DSA25 drop shape analyser instrument. The drop formation was allowed to grow as close as possible the maximum volume at which it would detach from the needle. At this point, the drop was left to stabilize for 2 minutes and then was detached from the needle by providing a small amount of additional solution. A photo of the drop leaving the needle was captured using the camera connected to the Krüss DSA25. The diameter of the drop was measured, and the surface tension was calculated using the following equation: […]
Where γ is the surface tension (mN/m), V is the drop volume (cm^3), Δρ is the difference of density between water and octanol (g/cm^3), g is the acceleration due to gravity (cm/s^2), d is the outer diameter of the needle (cm), and f is a correction factor calculated using the following equation: […]
Surface tension at concentration 2 times the CMC in deionised water (prepared using a Milli-Q system (Merck)) are summarized in Table 6. […] In FIG. 2 the drops formation of a water/surfactant solution in octanol have been reported for the SAF-8, SAF-12 and SDBS at a concentration of surfactant double of the CMC. The SAF-8 show the lower surface tension due mostly to the high concentration of surfactant used ([…]).
SAF-8 was evaluated using a concentration 2 times the CMC, while SAF-12 was evaluated at 2, 4 and 8 times the CMC.

[5] = Foaming capacity (ISO 6964 with modifications); format: physicochemical; settings: 0.2% surfactant, 50° C., after 5 minutes; for Foam height, hard water: 200 ppm CaCl2
Method: Foaming capacity was evaluated following the protocol set out in ISO 6964, with some modifications. In each test, 700 mL of surfactant solution containing 0.2% surfactant was prepared using deionized water or a hard water solution of distilled water with 200 ppm of CaCl2. The solutions were prepared by agitating the components for 60 minutes at 50° C. After 60 minutes, 50 mL of solution was poured in a 1000 mL glass measuring cylinder, which was then placed in a water bath that was heated to 50° C. 600 mL of the surfactant solution was poured into a chromatography column fitted with a stainless-steel needle at the egress. The column was placed over the measuring cylinder so that the tip of the needle was […] from the surfactant solution in the measuring cylinder. 450 mL of surfactant solution were poured from the column into the measuring cylinder. After pouring the solution, foam height was measured at 30 sec, 3 min, 5 min and 15 min.

[6] = system: E. coli in expressing the b-galactosidase; format: cell-based; settings: 37° C., 30 min, OD 600 nm
Method: The toxicity of different surfactants was analysed using a Toxi-Chromo test kit supplied by EBPI to quantify the inhibition of E. coli in expressing the b-galactosidase in the presence of the surfactants. Using the standard protocol, a mother solution containing 1000 ppm of a surfactant was prepared. The bacteria inoculum was mixed with a reaction mixture, nutrients supplied with the kit and the toxicant. A further 15 samples at containing different amounts of the surfactant were prepared in the well plate through subsequent dilutions. The chromogen supplied with the kit was added in each well and the well plate was then incubated at 37° C. for 30 min. The optical density (OD) was read at 600 nm using a plate reader. The % inhibition was measured by the OD variation (which is associated a blue colour development). EC50 was measured by plotting and fitting the % inhibition and surfactant concentration.

[7] = system: protozoa microorganisms; format: cell-based; settings: 30° C., 24 h, OD 440 nm
Method: The toxicity of different surfactants was analysed using a Protoxkit supplied by microbiotests quantify the inhibition of growth of protozoa microorganisms in the presence of the surfactants. Using the standard protocol, a dilution series of toxicant was prepared by serial 1:1 dilution with distilled water. 2 mL of each solution is placed in a UV cuvette. An inoculum of Protozoa was diluted to reach an OD of 0.04 at 440 nm then 40 μL of inoculum was added along a solution of 40 μL of nutrients in each dilution vials. The initial OD was measured for each vial and the vial was then incubated at 30° C. for 24 h. Inhibition was measured by the comparing the variation of initial and final OD.

[8] = system: zein protein; assay: Zein solubilisation study; settings: 2 g zein, 40 ml of 0.5 wt % surfactant solution, 40° C., 12 h
Method: The applicability of surfactants in personal care products was studied by analysing their capacity to solubilise zein protein. In each test 2 g of zein protein was mixed with 40 ml of 0.5 wt % surfactant solution and the mixture was incubated at 40° C. for 12 h. The mixture was then centrifuged and the remaining solid zein was washed with 50 mL of water 5 times. The solid zein was dried for in an oven at 70° C. for 5 days and weighted. The zein solubilisation was evaluated as percentage of zein that was dissolved into the surfactant solution.

[9] = surfactant concentration 12.5 % weight in water
[10] = surfactant concentration 15 % weight in water
[11] = surfactant concentration 17.5 % weight in water
[12] = surfactant concentration 20 % weight in water
[13] = surfactant concentration 22.5 % weight in water
[14] = deionised water in octanol, concentration 2 times the CMC
[15] = hard water (500 ppm CaCl2) in octanol, 2 times the CMC

SMILES	solubility in water (concentration solubilized) [1]	temperature at which dissolution was observed [1, 9]	temperature at which dissolution was observed [1, 10]	temperature at which dissolution was observed [1, 11]	temperature at which dissolution was observed [1, 12]	temperature at which dissolution was observed [1, 13] [°C]	CMC [2] [ppm]	appearance of the solutions in hard water stability tests (in words) [3]	Mean Stability [3]	Total Score [3]	Surface tension [4, 14] [mN/m]	Foam height, hard water [5] [mm]	Foam height, distilled water [5] [mm]	EC50, inhibition of E. coli in expressing the b-galactosidase [6] [ppm]	EC50, inhibition of growth of protozoa microorganisms [7] [ppm]	Surface tension [4, 15] [mN/m]	% of zein dissolved [8] [%]	other results
CCCCCCCCCCCCCCCCOC(=O)c1ccc(S(=O)(=O)O)o1 [SAF-16, Sulfonated Hexadecyl Furoate]	0.05%	>50 °C	>50 °C	>50 °C	>50 °C	>50	60											solubility in water (in words) ([1]; comparison of surfactants): very low solubility
CCCCCCCCCCCCOS(=O)(=O)[O-].[Na+] [SDS, sodium dodecyl sulfate, reference compound]								extensive precipitation in many tests	2 (19-37)	21	1.34 ± 0.28	4.25 ± 0.4	7.25 ± 0.4	123.7 ± 5.2	85.71 ± 3.8			behaviour in hard water (in words) ([4]; hard water (500 ppm CaCl2)): significant agglomeration
CCCCCCCCCCCCOC(=O)c1ccc(S(=O)(=O)O)o1 [SAF-12, Sulfonated Dodecyl Furoate]		20-25 °C	20-25 °C	20-25 °C	20-25 °C	<0	521	remained clear	5 (75)	75	3.42	10.35 ± 0.5	7.8 ± 0.4	63.5 ± 2.8	49.65 ± 5	4.51 ± 0.5	15.3 ± 0.26	temperature below which the surfactant would precipitate ([1]; 20% solution): below 20 °C; solubility in water (concentration soluble) ([1]; 24° C.): 20%; Surface tension ([4]; hard water (500 ppm CaCl2) in octanol, 4 times the CMC): 3.78 ± 0.45 mN/m; Surface tension ([4]; hard water (500 ppm CaCl2) in octanol, 8 times the CMC): 1.99 ± 0.27 mN/m
CCCCCCCCOC(=O)c1ccc(S(=O)(=O)O)o1 [SAF-8, Sulfonated Octyl Furoate]	up to 140%	<0 °C	<0 °C	<0 °C	<0 °C	<0	1330	remained clear	5 (75)	75	2.65	5 ± 0.5	2.5 ± 0.7	292 ± 13	673 ± 10	1.91 ± 0.25	10.4 ± 0.98	
